Experimental data published in patent US8124610B2, “Sodium channel inhibitors” (Icagen Inc., priority 2007, dated 2012).

What was measured:
hSCN3A = biological target: T1, hSCN3A (Homo sapiens, UniProt Q9NY46); assay: Whole-cell patch-clamp electrophysiology (conventional or PatchXpress), HEK cells expressing hSCN3A, estimated IC-50; assay type: cell-based; conditions: estimated IC-50, HEK cells expressing hSCN3A; class symbols or bounds; read-out: SCN3A EIC-50
T1 construct: expressed in transfected cells
In short: (§1)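 Current through each channel was evoked by a 20 ms step to 0 mV following an 8 s conditioning prepulse at the cell's own half-inactivation voltage. Recordings used HEK lines stably expressing the channel, conventional or PatchXpress patch clamp, room temperature, pH 7.4 bath; inhibition taken as pre/post-compound amplitude change.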

hSCN9A = biological target: T2, hSCN9A (Homo sapiens, UniProt Q15858); assay: Whole-cell patch-clamp electrophysiology (conventional or PatchXpress), HEK cells expressing hSCN9A, estimated IC-50; assay type: cell-based; conditions: estimated IC-50, HEK cells expressing hSCN9A; class symbols or bounds; read-out: SCN9A EIC-50
T2 construct: expressed in transfected cells
In short: as §1

Nav1.3 = Nav1.3 (Homo sapiens, UniProt Q9NY46); conditions: read-out: TTX IC-50; cited from earlier work
Nav1.6 = Nav1.6 (Homo sapiens, UniProt Q9UQD0); conditions: read-out: TTX IC-50; cited from earlier work
Nav1.8 = Nav1.8 (Homo sapiens, UniProt Q9Y5Y9); conditions: read-out: TTX IC-50; cited from earlier work
Nav1.9 = Nav1.9 (Homo sapiens, UniProt Q9UI33); conditions: read-out: TTX IC-50; cited from earlier work
Nav1.1 = Nav1.1 (Homo sapiens, UniProt P35498); conditions: read-out: TTX IC-50; cited from earlier work
Nav1.2 = Nav1.2 (Homo sapiens, UniProt Q99250); conditions: read-out: TTX IC-50; cited from earlier work
[1] = cited from earlier work

T1 sequence (Q9NY46 whole entry): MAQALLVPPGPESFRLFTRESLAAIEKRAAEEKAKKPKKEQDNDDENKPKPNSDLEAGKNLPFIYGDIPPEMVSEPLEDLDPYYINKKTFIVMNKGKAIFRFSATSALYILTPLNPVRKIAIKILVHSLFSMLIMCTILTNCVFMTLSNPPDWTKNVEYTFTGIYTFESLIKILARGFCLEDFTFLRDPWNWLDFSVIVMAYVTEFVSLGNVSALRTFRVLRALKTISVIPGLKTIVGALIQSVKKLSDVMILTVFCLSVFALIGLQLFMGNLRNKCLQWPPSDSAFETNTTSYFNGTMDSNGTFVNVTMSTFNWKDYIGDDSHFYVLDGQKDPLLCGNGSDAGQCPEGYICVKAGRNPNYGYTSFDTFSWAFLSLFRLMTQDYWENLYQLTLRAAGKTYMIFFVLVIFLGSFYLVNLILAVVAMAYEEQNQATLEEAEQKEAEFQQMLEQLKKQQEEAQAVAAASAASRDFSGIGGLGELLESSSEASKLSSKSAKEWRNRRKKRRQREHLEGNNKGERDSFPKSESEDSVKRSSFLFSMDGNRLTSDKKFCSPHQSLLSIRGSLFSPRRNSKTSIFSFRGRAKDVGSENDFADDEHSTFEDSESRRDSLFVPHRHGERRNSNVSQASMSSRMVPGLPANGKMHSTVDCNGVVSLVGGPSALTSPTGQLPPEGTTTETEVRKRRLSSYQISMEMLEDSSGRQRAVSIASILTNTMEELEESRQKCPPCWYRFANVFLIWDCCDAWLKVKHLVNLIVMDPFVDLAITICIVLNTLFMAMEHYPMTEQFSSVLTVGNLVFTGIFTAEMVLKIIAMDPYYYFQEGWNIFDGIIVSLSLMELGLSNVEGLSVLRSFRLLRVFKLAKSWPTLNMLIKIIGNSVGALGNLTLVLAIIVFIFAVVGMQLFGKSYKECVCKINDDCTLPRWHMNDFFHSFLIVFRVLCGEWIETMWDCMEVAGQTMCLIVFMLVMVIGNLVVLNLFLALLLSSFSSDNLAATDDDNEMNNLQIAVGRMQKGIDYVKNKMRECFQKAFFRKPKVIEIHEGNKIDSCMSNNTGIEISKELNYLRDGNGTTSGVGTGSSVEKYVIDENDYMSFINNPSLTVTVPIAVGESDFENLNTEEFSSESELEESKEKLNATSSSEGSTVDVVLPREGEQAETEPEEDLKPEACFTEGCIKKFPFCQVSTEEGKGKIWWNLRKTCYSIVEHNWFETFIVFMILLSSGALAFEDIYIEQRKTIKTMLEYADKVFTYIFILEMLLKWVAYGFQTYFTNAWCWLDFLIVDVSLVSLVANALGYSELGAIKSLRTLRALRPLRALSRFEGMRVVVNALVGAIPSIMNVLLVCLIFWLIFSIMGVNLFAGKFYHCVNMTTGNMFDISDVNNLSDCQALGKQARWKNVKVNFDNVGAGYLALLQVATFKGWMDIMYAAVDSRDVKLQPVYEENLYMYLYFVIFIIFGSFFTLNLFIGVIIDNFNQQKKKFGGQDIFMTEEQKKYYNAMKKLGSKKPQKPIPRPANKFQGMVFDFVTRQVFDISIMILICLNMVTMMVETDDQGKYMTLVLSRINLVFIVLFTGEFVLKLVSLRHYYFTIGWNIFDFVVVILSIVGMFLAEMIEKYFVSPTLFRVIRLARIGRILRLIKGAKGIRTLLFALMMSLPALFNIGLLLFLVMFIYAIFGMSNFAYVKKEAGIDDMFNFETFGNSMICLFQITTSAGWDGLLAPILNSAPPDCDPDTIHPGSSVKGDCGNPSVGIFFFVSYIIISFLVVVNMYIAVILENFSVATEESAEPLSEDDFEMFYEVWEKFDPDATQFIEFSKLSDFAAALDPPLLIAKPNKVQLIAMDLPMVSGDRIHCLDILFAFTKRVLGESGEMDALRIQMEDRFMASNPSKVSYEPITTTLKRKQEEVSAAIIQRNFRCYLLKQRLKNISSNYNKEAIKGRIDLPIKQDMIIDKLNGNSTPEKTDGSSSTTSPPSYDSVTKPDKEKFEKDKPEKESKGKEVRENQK
T2 sequence (Q15858 whole entry): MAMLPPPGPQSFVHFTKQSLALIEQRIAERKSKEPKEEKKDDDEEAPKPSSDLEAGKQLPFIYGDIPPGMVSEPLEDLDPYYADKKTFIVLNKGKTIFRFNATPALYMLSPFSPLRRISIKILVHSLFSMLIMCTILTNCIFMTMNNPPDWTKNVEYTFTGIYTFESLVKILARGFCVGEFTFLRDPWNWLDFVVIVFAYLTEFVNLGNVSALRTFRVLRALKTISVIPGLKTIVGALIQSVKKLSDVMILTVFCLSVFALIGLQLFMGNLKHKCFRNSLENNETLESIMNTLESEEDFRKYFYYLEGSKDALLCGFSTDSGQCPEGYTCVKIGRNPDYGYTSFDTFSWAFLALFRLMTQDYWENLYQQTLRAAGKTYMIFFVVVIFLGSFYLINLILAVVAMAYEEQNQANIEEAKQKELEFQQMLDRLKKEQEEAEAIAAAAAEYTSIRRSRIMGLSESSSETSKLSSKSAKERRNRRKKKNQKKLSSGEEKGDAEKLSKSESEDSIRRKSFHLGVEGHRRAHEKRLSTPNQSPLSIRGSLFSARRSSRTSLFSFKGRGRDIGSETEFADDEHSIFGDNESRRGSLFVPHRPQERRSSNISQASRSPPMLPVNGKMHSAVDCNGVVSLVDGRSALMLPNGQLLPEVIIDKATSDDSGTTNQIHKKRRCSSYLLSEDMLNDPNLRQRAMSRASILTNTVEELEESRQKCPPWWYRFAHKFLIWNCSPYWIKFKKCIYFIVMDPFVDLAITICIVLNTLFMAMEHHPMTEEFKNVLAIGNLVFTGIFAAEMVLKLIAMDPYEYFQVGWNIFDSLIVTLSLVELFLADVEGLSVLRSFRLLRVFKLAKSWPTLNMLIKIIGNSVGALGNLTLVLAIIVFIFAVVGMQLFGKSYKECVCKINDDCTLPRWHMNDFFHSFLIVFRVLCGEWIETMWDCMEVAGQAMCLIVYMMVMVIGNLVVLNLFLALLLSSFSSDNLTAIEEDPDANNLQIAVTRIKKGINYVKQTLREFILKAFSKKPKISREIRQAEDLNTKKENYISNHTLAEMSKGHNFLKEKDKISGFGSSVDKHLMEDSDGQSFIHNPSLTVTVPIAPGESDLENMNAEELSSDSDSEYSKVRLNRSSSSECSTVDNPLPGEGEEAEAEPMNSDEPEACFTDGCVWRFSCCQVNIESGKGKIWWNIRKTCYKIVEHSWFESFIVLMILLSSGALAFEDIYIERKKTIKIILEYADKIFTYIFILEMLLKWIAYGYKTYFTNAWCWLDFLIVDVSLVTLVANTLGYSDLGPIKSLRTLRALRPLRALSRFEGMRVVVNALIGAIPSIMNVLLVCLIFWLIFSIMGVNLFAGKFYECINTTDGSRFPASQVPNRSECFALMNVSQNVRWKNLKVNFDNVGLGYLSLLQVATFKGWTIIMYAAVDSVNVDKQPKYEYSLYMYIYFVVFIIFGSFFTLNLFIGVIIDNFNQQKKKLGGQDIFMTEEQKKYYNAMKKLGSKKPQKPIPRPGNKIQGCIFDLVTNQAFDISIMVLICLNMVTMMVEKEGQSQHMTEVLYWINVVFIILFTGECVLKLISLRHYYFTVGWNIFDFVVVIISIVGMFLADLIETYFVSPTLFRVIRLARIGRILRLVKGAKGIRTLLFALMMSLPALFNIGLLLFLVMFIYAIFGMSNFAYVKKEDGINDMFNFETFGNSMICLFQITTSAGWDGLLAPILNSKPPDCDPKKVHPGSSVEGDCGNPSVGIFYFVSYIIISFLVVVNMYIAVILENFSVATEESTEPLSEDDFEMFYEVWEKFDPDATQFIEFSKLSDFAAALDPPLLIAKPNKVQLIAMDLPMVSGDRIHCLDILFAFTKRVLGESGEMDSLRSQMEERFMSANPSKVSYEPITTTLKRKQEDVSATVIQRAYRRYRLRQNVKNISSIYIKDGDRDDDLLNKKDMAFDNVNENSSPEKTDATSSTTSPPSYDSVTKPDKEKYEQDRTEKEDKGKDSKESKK
Chain of Nav1.3 (Q9NY46 whole entry, looked up): as the sequence (Q9NY46 whole entry) above

SMILES	IC50 (hSCN3A) [nM]	IC50 (hSCN9A) [nM]	other results
O=S(=O)(Nc1nccs1)c1ccc(Nc2ccn(Cc3ccc(C(F)(F)F)cc3)n2)c(F)c1 [Compound 185, 3-fluoro-N-(thiazol-2-yl)-4-(1-(4-(trifluoromethyl)benzyl)-1H-pyrazol-3-ylamino)benzenesulfonamide]	< 2000	< 2000	–
COc1ccccc1-n1nc(C)cc1Nc1ccc(S(=O)(=O)Nc2nccs2)c(F)c1 [Compound 188, 2-fluoro-4-(1-(2-methoxyphenyl)-3-methyl-1H-pyrazol-5-ylamino)-N-(thiazol-2-yl)benzenesulfonamide]	< 2000	< 2000	–
Cc1cc(Nc2ccc(S(=O)(=O)Nc3nccs3)c(F)c2)n(-c2c(C)cccc2C)n1 [Compound 191, 4-(1-(2,6-dimethylphenyl)-3-methyl-1H-pyrazol-5-ylamino)-2-fluoro-N-(thiazol-2-yl)benzenesulfonamide]	< 2000	< 2000	–
Cn1nc(C(C)(C)C)cc1Nc1ccc(S(=O)(=O)Nc2nccs2)c(F)c1 [Compound 193, 4-(3-tert-butyl-1-methyl-1H-pyrazol-5-ylamino)-2-fluoro-N-(thiazol-2-yl)benzenesulfonamide]	< 2000	< 2000	–
O=S(=O)(Nc1nccs1)c1ccc(Nc2ccn(Cc3ccc(Cl)cc3F)n2)c(F)c1 [Compound 198, 4-(1-(4-chloro-2-fluorobenzyl)-1H-pyrazol-3-ylamino)-3-fluoro-N-(thiazol-2-yl)benzenesulfonamide]	< 2000	< 2000	–
O=S(=O)(Nc1nccs1)c1ccc(Nc2ncn(Cc3cccc(Cl)c3)n2)c(F)c1 [Compound 201, 4-(1-(3-chlorobenzyl)-1H-1,2,4-triazol-3-ylamino)-3-fluoro-N-(thiazol-2-yl)benzenesulfonamide]	2000 to 10000	< 2000	–
O=S(=O)(Nc1nccs1)c1ccc(Nc2cc(CC(F)(F)F)nn2-c2ccccc2F)cc1F [Compound 204, 2-fluoro-4-(1-(2-fluorophenyl)-3-(2,2,2-trifluoroethyl)-1H-pyrazol-5-ylamino)-N-(thiazol-2-yl)benzenesulfonamide]	< 2000	< 2000	–
O=S(=O)(Nc1nccs1)c1ccc(Nc2ccn(Cc3ccc(Cl)cc3)n2)c(Cl)c1 [Compound 205, 3-chloro-4-(1-(4-chlorobenzyl)-1H-pyrazol-3-ylamino)-N-(thiazol-2-yl)benzenesulfonamide]	< 2000	< 2000	–
O=S(=O)(Nc1nccs1)c1cc(F)c(Nc2ccn(Cc3ccc(Cl)cc3)n2)cc1F [Compound 206, 4-(1-(4-chlorobenzyl)-1H-pyrazol-3-ylamino)-2,5-difluoro-N-(thiazol-2-yl)benzenesulfonamide]	< 2000	< 2000	–
CCN(CC)C(=O)Cc1cc(Nc2ccc(S(=O)(=O)Nc3nccs3)c(F)c2)n(-c2ccccc2)n1 [Compound 216, N,N-diethyl-2-(5-(3-fluoro-4-(N-thiazol-2-ylsulfamoyl)phenylamino)-1-phenyl-1H-pyrazol-3-yl)ethanamide]	> 1000	< 2000	–
COc1cc(Cl)ccc1-c1cc(Nc2ccc(S(=O)(=O)Nc3nccs3)c(F)c2)n(C)n1 [Compound 222, 4-(3-(4-chloro-2-methoxyphenyl)-1-methyl-1H-pyrazol-5-ylamino)-2-fluoro-N-(thiazol-2-yl)benzenesulfonamide]	< 2000	< 2000	–
O=S(=O)(Nc1nccs1)c1ccc(Nc2ccn(Cc3ccc(Cl)cc3)n2)nc1 [Compound 227, 6-(1-(4-chlorobenzyl)-1H-pyrazol-3-ylamino)-N-(thiazol-2-yl)pyridine-3-sulfonamide]	< 2000	2000 to 10000	–
O=S(=O)(Nc1nccs1)c1ccc(Nc2cnn(Cc3ccc(Cl)cc3)c2)nc1 [Compound 228, 6-(1-(4-chlorobenzyl)-1H-pyrazol-4-ylamino)-N-(thiazol-2-yl)pyridine-3-sulfonamide]	< 2000	2000 to 10000	–
O=S(=O)(Nc1nccs1)c1ccc(Nc2ccn(Cc3ccc(Cl)cc3)n2)cn1 [Compound 235, 5-(1-(4-chlorobenzyl)-1H-pyrazol-3-ylamino)-N-(thiazol-2-yl)pyridine-2-sulfonamide]	< 2000	2000 to 10000	–
O=S(=O)(Nc1ncns1)c1ccc(Nc2ccn(Cc3ccc(Cl)cc3)n2)cc1F [Compound 244, 4-(1-(4-chlorobenzyl)-1H-pyrazol-3-ylamino)-2-fluoro-N-(1,2,4-thiadiazol-5-yl)benzenesulfonamide]	< 2000	< 2000	–
Cc1cc(Nc2ccc(S(=O)(=O)Nc3ncc(C#N)s3)c(F)c2)n(-c2ccccc2)n1 [Compound 245, N-(5-cyanothiazol-2-yl)-2-fluoro-4-(3-methyl-1-phenyl-1H-pyrazol-5-ylamino)benzenesulfonamide]	2000 to 10000	> 1000	–
O=S(=O)(Nc1nccs1)c1ccc(Nc2ccn(Cc3ccc(Cl)cc3)n2)cc1Cl [Compound 263, 2-chloro-4-(1-(4-chlorobenzyl)-1H-pyrazol-3-ylamino)-N-(thiazol-2-yl)benzenesulfonamide]	< 2000	< 2000	–
N#Cc1cc(Nc2ccn(Cc3ccc(Cl)cc3)n2)ccc1S(=O)(=O)Nc1nccs1 [Compound 264, 4-(1-(4-chlorobenzyl)-1H-pyrazol-3-ylamino)-2-cyano-N-(thiazol-2-yl)benzenesulfonamide]	< 2000	< 2000	–
O=S(=O)(Nc1nccs1)c1ccc(Nc2ccn(Cc3ccc(Cl)cc3)n2)cc1OC(F)(F)F [Compound 266, 4-(1-(4-chlorobenzyl)-1H-pyrazol-3-ylamino)-N-(thiazol-2-yl)-2-(trifluoromethoxy)benzenesulfonamide]	2000 to 10000	> 1000	–
Cc1cc(S(=O)(=O)Nc2nccs2)c(F)cc1Nc1ccn(Cc2ccc(Cl)cc2)n1 [Compound 269, 4-(1-(4-chlorobenzyl)-1H-pyrazol-3-ylamino)-2-fluoro-5-methyl-N-(thiazol-2-yl)benzenesulfonamide]	< 2000	< 2000	–
COc1ccc(C(=O)Cn2ncc3cc(S(=O)(=O)Nc4nccs4)ccc32)c(OC)c1 [Compound 276, 1-(2-(2,4-dimethoxyphenyl)-2-oxoethyl)-N-(thiazol-2-yl)-1H-indazole-5-sulfonamide]	< 2000	> 1000	–
COc1ccc(C(=O)Cn2cc3cc(S(=O)(=O)Nc4nccs4)ccc3n2)c(OC)c1 [Compound 277, 2-(2-(2,4-dimethoxyphenyl)-2-oxoethyl)-N-(thiazol-2-yl)-2H-indazole-5-sulfonamide]	> 1000	< 2000	–
O=C(Cn1ncc2cc(S(=O)(=O)Nc3nccs3)ccc21)c1ccc(F)cc1 [Compound 280, 1-(2-(4-fluorophenyl)-2-oxoethyl)-N-(thiazol-2-yl)-1H-indazole-5-sulfonamide]	2000 to 10000	2000 to 10000	–
NC1=N[C@H](O)[C@H]2[C@H]3O[C@]4(O)O[C@@H]([C@@H](O)[C@@]2(N1)[C@@H]4O)[C@]3(O)CO [TTX, tetrodotoxin]	–	–	IC50 (Nav1.3): 15 nM; IC50 (Nav1.6): 6 nM; IC50 (Nav1.8): 50000 nM; IC50 (Nav1.9): 1000 nM; IC50 (Nav1.1): 10 nM; IC50 (Nav1.2): 10 nM
NCC1(CC(=O)O)CCCCC1 [gabapentin]	–	–	patients that respond to gabapentin treatment for neuropathic pain [1]: 30%
